Key:
Experiment in all cases: relative viability (nuclei count vs DMSO), 5 days (fraction); higher = more cells survive
RU-SKI 43 + Trametinib = compound: CC[C@@H](C)CNCC(=O)N1CCC2=C([C@@H]1COC3=CC=CC(=C3)C)C=CS2 [RU-SKI 43] + CC(=O)Nc1cccc(-n2c(=O)n(C3CC3)c(=O)c3c(Nc4ccc(I)cc4F)n(C)c(=O)c(C)c32)c1 [Trametinib] (partner 0.02 µM)
In short: (§1)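 Lung cancer cell lines in 1536-well plates got either a single drug or a fixed anchor-drug dose together with five library-drug doses (not always all listed) in √10 steps, by pin tool, on the day after seeding. Nuclei were counted after 5 days, and relative viability is the treated-to-vehicle ratio of nuclei counts. Values are medians of duplicate plates.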

RU-SKI 43 + Crizotinib = compound: CC[C@@H](C)CNCC(=O)N1CCC2=C([C@@H]1COC3=CC=CC(=C3)C)C=CS2 [RU-SKI 43] + C[C@@H](Oc1cc(-c2cnn(C3CCNCC3)c2)cnc1N)c1c(Cl)ccc(F)c1Cl [Crizotinib] (partner 1 µM)
In short: as §1

Irinotecan + Olaparib = compound: CCc1c2c(nc3ccc(OC(=O)N4CCC(N5CCCCC5)CC4)cc13)-c1cc3c(c(=O)n1C2)COC(=O)[C@]3(O)CC [Irinotecan] + O=C(c1cc(Cc2n[nH]c(=O)c3ccccc23)ccc1F)N1CCN(C(=O)C2CC2)CC1 [Olaparib] (partner 8 µM)
In short: as §1

Irinotecan + Pictilisib = compound: CCc1c2c(nc3ccc(OC(=O)N4CCC(N5CCCCC5)CC4)cc13)-c1cc3c(c(=O)n1C2)COC(=O)[C@]3(O)CC [Irinotecan] + CS(=O)(=O)N1CCN(Cc2cc3nc(-c4cccc5[nH]ncc45)nc(N4CCOCC4)c3s2)CC1 [Pictilisib] (partner 1 µM)
In short: as §1

Cell Line | relative viability (RU-SKI 43 + Trametinib; first compound 0.1 µM) | relative viability (RU-SKI 43 + Trametinib; first compound 0.3162 µM) | relative viability (RU-SKI 43 + Trametinib; first compound 1 µM) | relative viability (RU-SKI 43 + Trametinib; first compound 3.162 µM) | relative viability (RU-SKI 43 + Trametinib; first compound 10 µM) | relative viability (RU-SKI 43 + Crizotinib; first compound 0.1 µM) | relative viability (RU-SKI 43 + Crizotinib; first compound 0.3162 µM) | relative viability (RU-SKI 43 + Crizotinib; first compound 1 µM) | relative viability (RU-SKI 43 + Crizotinib; first compound 3.162 µM) | relative viability (RU-SKI 43 + Crizotinib; first compound 10 µM) | relative viability (Irinotecan + Olaparib; first compound 0.6325 µM) | relative viability (Irinotecan + Olaparib; first compound 2 µM) | relative viability (Irinotecan + Olaparib; first compound 6.325 µM) | relative viability (Irinotecan + Olaparib; first compound 20 µM) | relative viability (Irinotecan + Pictilisib; first compound 0.6325 µM) | relative viability (Irinotecan + Pictilisib; first compound 2 µM) | relative viability (Irinotecan + Pictilisib; first compound 6.325 µM) | relative viability (Irinotecan + Pictilisib; first compound 20 µM)
RERF-LC-KJ | 0.846 | 0.84 | 0.914 | 0.85 | 0.768 | 0.904 | 0.86 | 0.772 | 0.862 | 0.77 | 0.806 | 0.56 | 0.38 | 0.243 | 0.516 | 0.422 | 0.455 | 0.418
NCI-H2170 | 0.975 | 1.39 | 1.04 | 0.908 | 0.946 | 1.26 | 1.42 | 1.49 | 1.22 | 1.07 | 0.173 | 0.184 | 0.121 | 0.102 | 0.32 | 0.242 | 0.224 | 0.157
HCC-44 | 1.11 | 1.06 | 1.17 | 1.15 | 1.07 | 0.778 | 0.785 | 0.846 | 0.796 | 0.806 | 0.754 | 0.423 | 0.378 | 0.425 | 0.657 | 0.438 | 0.221 | 0.404
HCC-15 | 0.41 | 0.373 | 0.37 | 0.384 | 0.336 | 0.806 | 1.01 | 0.962 | 0.873 | 0.807 | 0.213 | 0.279 | 0.202 | 0.146 | 0.186 | 0.286 | 0.137 | 0.167
SK-LU-1 | 0.43 | 0.495 | 0.492 | 0.49 | 0.385 | 0.799 | 1.02 | 0.969 | 0.971 | 0.898 | 0.312 | 0.265 | 0.29 | 0.218 | 0.444 | 0.447 | 0.322 | 0.247
H3255 | 0.664 | 0.682 | 0.625 | 0.578 | 0.588 | 0.858 | 0.885 | 0.976 | 0.791 | 0.874 | 0.464 | 0.446 | 0.343 | 0.362 | 0.302 | 0.272 | 0.222 | 0.23
NCI-H1666 | 0.831 | 0.804 | 0.803 | 0.845 | 0.68 | 0.966 | 1.01 | 0.971 | 0.945 | 0.571 | 0.672 | 0.726 | 0.654 | 0.671 | 0.559 | 0.338 | 0.409 | 0.311
201T | 0.709 | 0.717 | 0.776 | 0.789 | 0.749 | 1.02 | 0.991 | 1.06 | 1.06 | 0.992 | 0.53 | 0.312 | 0.231 | 0.264 | – | 0.738 | 0.36 | 0.346
LK-2 | 0.766 | 1.01 | 0.915 | 0.828 | 0.736 | 0.206 | 0.219 | 0.256 | – | 0.199 | 0.481 | 0.426 | 0.201 | 0.235 | 0.558 | 0.58 | 0.34 | 0.294

Reference: the supplement of paper PMC10307832
